Assay results from patent US10294262B2, “7-deazapurine nucleosides for therapeutic uses” (Institute of Organic Chemistry and Biochemistry ASCR, V.V.I., priority 2009, dated 2019).

What was measured:
A549 = assay: Test A: Cytostatic cell culture assay (CC50), SRB, solid tumor cell lines; details: Homo sapiens, A549, 120 h, read-out: CC50 Lung A549
Excerpt: Test A: Cytostatic Cell Culture Assay (CC50) for Solid Tumor Cell Lines
This assay is based on quantification of cell mass determination by a colorimetric detection of the cell associated proteins. The assay relies on the ability of sulforhodamine B (SRB) to bind to protein components of cells that have been fixed to tissue-culture plates by trichloroacetic acid (TCA). SRB is a bright-pink aminoxanthene dye with two sulfonic groups that bind to basic amino-acid residues under mild acidic conditions, and dissociate under basic conditions. As the binding of SRB is stochiometric, the amount of dye extracted from stained cells is directly proportional to the cell mass.
Cell lines: All cell lines are obtained from ATCC (Manassas, Va.). Cultivation media containing Glutamax, and trypsin are purchased from Invitrogen (Carlsbad, Calif.). Doxorubicin, Tubercidin, Clofarabine, TCA and SRB are from Sigma-Aldrich (St. Louis, Mo.). Gemcitabine is obtained from Moravek Biochemicals (Brea, Calif.)
• 1. Trypsinize the sub-confluent cells, count them, and adjust the cell concentrations according to the cell counts listed in Table 1. • 2. Distribute the cells into the 96-well plates in 150 μL of media. Incubate the plates overnight in humidified CO2 incubator at 37° C. • 3. Fix one plate of each cell line with TCA. Discard the cultivation media from the plates by flicking them gently and add 100 μL cold 10% (vol/vol) TCA to each well. Incubate the plates at 4 degree refrigerator for 1 hour. Discard TCA from the plates by flicking them gently. Rinse plates four times in a washing basin containing tap water. Store the plates at room temperature. These plates represent cell counts on day zero. • 4. Prepare a set of medium solutions containing various concentrations of tested compounds by making 5-fold serial dilutions in 96-well plate. Add 50 μL of the diluted compounds per well. Include controls with untreated cells and cells treated with doxorubicin, tubercidin, clofarabine and/or gemcitabine. • 5. Incubate the plates for 5 days at 37° C. • 6. Fix the plates with TCA. Discard the cultivation media from the plates by flicking them gently and add 100 μL cold 10% (vol/vol) TCA to each well. Incubate the plates at 4 degree refrigerator for 1 hour. Discard TCA from the plates by flicking them gently. Rinse plates four times in a washing basin containing tap water. • 7. Remove excess water by tapping the plates face down, gently on a paper towel. Allow the plates to air-dry at room temperature. • 8. Add 100 μL of 0.057% SRB solution in 1% (vol/vol) acetic acid to each well of the plates fixed with TCA on day zero and five. Leave at room temperature for 30 minutes. • 9. Flick the plates gently to discard SRB. Rinse the plates four times with 1% (vol/vol) Acetic Acid. • 10. Store the plates at 37° incubator to facilitate faster drying. • 11. Once the plates are completely dry, add 200 μL of 10 mM Tris base solution (pH 10.5) to each well. Leave at room temperature for 30 minutes for SRB to solubilize. • 12. Measure the OD at 500 nm in a microplate reader. • 13. Calculate the percentage of cell-growth inhibition using the next formula: % of control cell growth=100×(ODsample−mean ODday0)/(ODneg control−mean ODday0). For CC50 determination, plot a dose-response curves between the compound concentration and percent of growth inhibition. CC50 values can be derived by fitting dose-response curves using sigmoidal dose response equation.

Du145 = assay: as above; format: cell-based; details: Homo sapiens, DU-145, 120 h, read-out: CC50 Prostate Du145
Experimental: (§1) Gemcitabine is obtained from Moravek Biochemicals (Brea, Calif.)
(§2) • 1. […] Fix one plate of each cell line with TCA. […] Discard TCA from the plates by flicking them gently. […] Store the plates at room temperature. These plates represent cell counts on day zero. • 4. […] Add 50 μL of the diluted compounds per well. […] Fix the plates with TCA. […] Discard TCA from the plates by flicking them gently. […] Leave at room temperature for 30 minutes. • 9. Flick the plates gently to discard SRB.

HCT116 = assay: as above; format: cell-based; details: Homo sapiens, HCT-116, 120 h, read-out: CC50 Colon HCT116
Experimental: as §1, §2

HCT15 = assay: as above; format: cell-based; details: Homo sapiens, HCT-15, 120 h, read-out: CC50 Colon HCT15
Experimental: as §1, §2

HS578 = assay: as above; format: cell-based; details: Homo sapiens, Hs578, 120 h, read-out: CC50 Breast HS578
Experimental: as §1, §2

NCI H23 = assay: as above; format: cell-based; details: Homo sapiens, NCI-H23, 120 h, read-out: CC50 Lung NCI H23
Experimental: as §1, §2

PC3 = assay: as above; format: cell-based; details: Homo sapiens, PC-3, 120 h, read-out: CC50 Prostate PC3
Experimental: as §1, §2

human tumor cell lines = assay: Tests A and B, all tumor cell lines together; format: cell-based; details: read-out: CC50 Geometric mean all
Experimental: as §2
Plates were incubated for 5 days with tested compounds.

[1] = test system: MT-4 T-lymphoid cell line; assay: Test B: Cytostatic cell culture assay (CC50), CellTiter Glo, lymphoid tumor cell lines; details: Homo sapiens, MT4, 120 h, read-out: CC50 T-lymphoid MT-4
Experimental: Test B: Cytostatic Cell Culture Assay (CC50) for Lymphoid Tumor Cell Lines
This test is typically performed with cell lines that are derived from hematological tumors and grow in suspension. An example of such cell line is human MT-4 T-lymphoid cell line used for the determination of cytostatic activity of tested compounds. […] Cells were passaged in suspension twice a week and maintained at densities below 500,000 cells/mL. For CC50 determination, cells were seeded into 384-well plates at 2,000 cells/well in 20 μL of culture medium. Compounds were serially diluted in culture medium and added in triplicate to a final assay volume of 40 μL/well. Plates were incubated for 5 days with tested compounds. At the end of incubation, cell viability was determined by addition of 40 μL of CellTiter Glo reagent followed by a luminescence read-out.
Data analysis and CC50 value calculations were done using GraphPad Prism software (GraphPad Software, San Diego, Calif.) by applying nonlinear regression.

BT549 = assay: Test A: Cytostatic cell culture assay (CC50), SRB, solid tumor cell lines; format: cell-based; details: Homo sapiens, BT-549, 120 h; BT549 breast tumor cells, 5 days, SRB; read-out: CC50 Breast BT549
Experimental: as §1, §2

SMILES	CC50 (A549) [nM]	CC50 (Du145) [nM]	CC50 (HCT116) [nM]	CC50 (HCT15) [nM]	CC50 (HS578) [nM]	CC50 (NCI H23) [nM]	CC50 (PC3) [nM]	CC50 (human tumor cell lines) [nM]	CC50 [1] [nM]	CC50 (BT549) [nM]	melting point [°C]
Nc1nc(Cl)nc2c1ncn2[C@@H]1O[C@H](CO)[C@@H](O)[C@@H]1F [Clofarabine, reference compound]	86	125	106	180	1240	40	63	116	51	–	–
COc1ccc(-c2cn([C@@H]3O[C@H](CO)[C@@H](O)[C@H]3O)c3ncnc(N)c23)cc1 [Compound 2b, 4-Amino-5-(4-methoxyphenyl)-7-(β-D-ribofuranosyl)-7H-pyrrolo[2,3-d]pyrimidine]	701	152	633	544	811	856	1110	768	4300	–	–
Nc1ncnc2c1c(-c1ccco1)cn2[C@@H]1O[C@H](CO)[C@@H](O)[C@H]1O [Compound 2f, 4-Amino-5-(furan-2-yl)-7-(β-D-ribofuranosyl)-7H-pyrrolo[2,3-d]pyrimidine]	35	19	48	3	17	294	4	25.6	86	–	–
Nc1ncnc2c1c(-c1cccs1)cn2[C@@H]1O[C@H](CO)[C@@H](O)[C@H]1O [Compound 2g, 4-Amino-7-(β-D-ribofuranosyl)-5-(thiophen-2-yl)-7H-pyrrolo[2,3-d]pyrimidine]	7	133	2.6	11	12	3.7	1620	22.6	35	–	–
Nc1ncnc2c1c(-c1ccc[nH]1)cn2[C@@H]1O[C@H](CO)[C@@H](O)[C@H]1O [Compound 2k, 4-Amino-5-(1H-pyrrol-2-yl)-7-(β-D-ribofuranosyl)-7H-pyrrolo[2,3-d]pyrimidine]	160	–	65.2	–	113	333	87.8	128	–	129	205 to 207
Nc1ccn([C@@H]2O[C@H](CO)[C@@H](O)C2(F)F)c(=O)n1 [Gemcitabine, reference compound]	7	3	2	3	1	2	6	2.4	2	1	–
Nc1ncnc2c1ccn2[C@@H]1O[C@H](CO)[C@@H](O)[C@H]1O [Tubercidin, reference compound]	1	18	1	11	98	11	48	10.3	21	–	–
